The target of this assay is T1, human GLP-1 receptor (Homo sapiens, UniProt P43220).
T1 construct: expressed in transfected cells; host or cells: membranes of BHK cells, parent line BHKTS13, clone FCW467-12A
Description: Assay (I)(a): GLP-1 receptor potency, CRE luciferase reporter gene assay in BHK cells. Type of assay: cell-based. As to conditions: BHK cells expressing human GLP-1 receptor, read-out: EC50 GLP-1R. Put shortly:
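BHK cells (clone FCW467-12A/KZ10-1), 5×10EE3/well, exposed 3 h at 37° C to compound at 1×10EE-13 to 1×10EE-6 M final in medium with 2% ovalbumin and 0.2% Pluronic F-68. Luciferase luminescence read; EC50 (pM) from four-parameter fit.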

pEC50: −log10 of the molar value. *1 amine or outer side, *2 acyl side, *3 side chain or, on linkers, in order; H or OH if unused. Where a SMILES comes first, the peptide text is derived from it. Bridges are numbered along the chain shown (N, C = ends). Roman numbers before positions name the chains, in order. Side-chain parts run from the residue outwards. [ ]: non-standard residue; d: D form. The star is where a group is joined. C18 diacid = O=C(O)CCCCCCCCCCCCCCCCC(=O)*; γGlu = O=C(O)[C@H](CCC(=O)[*:2])N[*:1]; Desaminohistidyl = O=C(CCc1c[nH]cn1)*; Aib = CC(C)(N)C(=O)O

T1 sequence (P43220 24-463): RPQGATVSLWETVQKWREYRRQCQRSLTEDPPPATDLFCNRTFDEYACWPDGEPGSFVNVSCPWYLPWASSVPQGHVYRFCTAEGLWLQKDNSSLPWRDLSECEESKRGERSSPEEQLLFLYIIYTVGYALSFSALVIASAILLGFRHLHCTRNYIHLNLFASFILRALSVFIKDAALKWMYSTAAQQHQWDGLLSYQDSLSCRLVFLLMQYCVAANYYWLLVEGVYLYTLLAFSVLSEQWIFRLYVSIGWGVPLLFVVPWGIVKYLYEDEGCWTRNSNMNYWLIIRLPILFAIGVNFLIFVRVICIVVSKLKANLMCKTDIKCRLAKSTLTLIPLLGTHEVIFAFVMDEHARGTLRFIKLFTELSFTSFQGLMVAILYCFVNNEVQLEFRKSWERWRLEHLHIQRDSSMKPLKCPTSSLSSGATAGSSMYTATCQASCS

As to `CC[C@H](C)[C@H](NC(=O)[C@H](Cc1ccccc1)NC(=O)[C@H](CCC(=O)O)NC(=O)[C@H](CCCNC(=N)N)NC(=O)[C@H](C)NC(=O)[C@H](C)NC(=O)[C@H](CCC(N)=O)NC(=O)[C@H](CCC(=O)O)NC(=O)[C@H](CCC(=O)O)NC(=O)[C@H](CC(C)C)NC(=O)[C@H](Cc1ccc(O)cc1)NC(=O)[C@H](CCCCN)NC(=O)[C@H](CO)NC(=O)[C@@H](NC(=O)[C@H](CC(=O)O)NC(=O)[C@H](CO)NC(=O)[C@@H](NC(=O)[C@H](Cc1ccccc1)NC(=O)[C@@H](NC(=O)CNC(=O)[C@H](Cc1c[nH]cn1)NC(=O)C(C)(C)NC(=O)CCc1c[nH]cn1)[C@@H](C)O)[C@@H](C)O)C(C)C)C(=O)N[C@@H](C)C(=O)N[C@@H](Cc1c[nH]c2ccccc12)C(=O)N[C@@H](CC(C)C)C(=O)N[C@@H](CC(C)C)C(=O)N[C@@H](CCCCNC(=O)CNC(=O)[C@H](CO)NC(=O)[C@H](CCC(=O)O)NC(=O)CNC(=O)[C@H](CO)NC(=O)CC[C@H](NC(=O)CC[C@H](NC(=O)CCCCCCCCCCCCCCCCC(=O)O)C(=O)O)C(=O)O)C(=O)N[C@H](C(N)=O)[C@@H](C)O` [Example 3, N^ε34-[2-[[(2S)-2-[[(2S)-4-carboxy-2-[[2-[[(2S)-2-[[(4S)-4-carboxy-4-[[(4S)-4-carboxy-4-(17-carboxyheptadecanoylamino)butanoyl]amino]butanoyl]amino]-3-hydroxypropanoyl]amino]acetyl]amino]butanoyl]amino]-3-hydroxypropanoyl]amino]acetyl]-[Imp7,Aib8,His9,Lys18,Glu22,Arg26,Leu33,Thr35]-GLP-1-(7-35)-peptide amide] (I: Desaminohistidyl-[Aib]HGTFTSDVSKYLEEQAAREFIAWLLKT-NH2 / II: {C18 diacid-γGlu-γGlu}-SGESG; amide I:27-II:C), the pEC50 is 11.30.

Take `CC[C@H](C)[C@H](NC(=O)[C@H](Cc1ccccc1)NC(=O)[C@H](CCC(=O)O)NC(=O)[C@H](CCCNC(=N)N)NC(=O)[C@H](C)NC(=O)[C@H](C)NC(=O)[C@H](CCC(N)=O)NC(=O)[C@H](CCC(=O)O)NC(=O)[C@H](CCC(=O)O)NC(=O)[C@H](CC(C)C)NC(=O)[C@H](Cc1ccc(O)cc1)NC(=O)[C@H](CCCCN)NC(=O)[C@H](CO)NC(=O)[C@@H](NC(=O)[C@H](CC(=O)O)NC(=O)[C@H](CO)NC(=O)[C@@H](NC(=O)[C@H](Cc1ccccc1)NC(=O)[C@@H](NC(=O)CNC(=O)[C@H](Cc1c[nH]cn1)NC(=O)C(C)(C)NC(=O)CCc1c[nH]cn1)[C@@H](C)O)[C@@H](C)O)C(C)C)C(=O)N[C@@H](C)C(=O)N[C@@H](Cc1c[nH]c2ccccc12)C(=O)N[C@@H](CC(C)C)C(=O)N[C@@H](CC(C)C)C(=O)N[C@@H](CCCCNC(=O)CNC(=O)[C@H](CO)NC(=O)CC[C@H](NC(=O)CC[C@H](NC(=O)CCCCCCCCCCCCCCCCC(=O)O)C(=O)O)C(=O)O)C(=O)N[C@H](C(N)=O)[C@@H](C)O` [Example 4, N^ε34-[2-[[(2S)-2-[[(4S)-4-carboxy-4-[[(4S)-4-carboxy-4-(17-carboxyheptadecanoylamino)butanoyl]amino]butanoyl]amino]-3-hydroxypropanoyl]amino]acetyl]-[Imp7,Aib8,His9,Lys18,Glu22,Arg26,Leu33,Thr35]-GLP-1-(7-35)-peptide amide] (Desaminohistidyl-[Aib]HGTFTSDVSKYLEEQAAREFIAWLLK([Gly-Ser-γGlu-γGlu-C18 diacid])T-NH2): the pEC50 is 11.15.

On to `CC[C@H](C)[C@H](NC(=O)[C@H](Cc1ccccc1)NC(=O)[C@H](CCC(=O)O)NC(=O)[C@H](CCCNC(=N)N)NC(=O)[C@H](C)NC(=O)[C@H](C)NC(=O)[C@H](CCC(N)=O)NC(=O)[C@H](CCC(=O)O)NC(=O)[C@H](CCC(=O)O)NC(=O)[C@H](CC(C)C)NC(=O)[C@H](Cc1ccc(O)cc1)NC(=O)[C@H](CCCCN)NC(=O)[C@H](CO)NC(=O)[C@@H](NC(=O)[C@H](CC(=O)O)NC(=O)[C@H](CO)NC(=O)[C@@H](NC(=O)[C@H](Cc1ccccc1)NC(=O)[C@@H](NC(=O)CNC(=O)[C@H](Cc1c[nH]cn1)NC(=O)C(C)(C)NC(=O)CCc1c[nH]cn1)[C@@H](C)O)[C@@H](C)O)C(C)C)C(=O)N[C@@H](C)C(=O)N[C@@H](Cc1c[nH]c2ccccc12)C(=O)N[C@@H](CC(C)C)C(=O)N[C@@H](CC(C)C)C(=O)N[C@@H](CCCCNC(=O)CC[C@H](NC(=O)CC[C@H](NC(=O)CC[C@H](NC(=O)CC[C@H](NC(=O)CCCCCCCCCCCCCCCCC(=O)O)C(=O)O)C(=O)O)C(=O)O)C(=O)O)C(=O)N[C@H](C(N)=O)[C@@H](C)O` [Example 6, N^ε34-[(4S)-4-carboxy-4-[[(4S)-4-carboxy-4-[[(4S)-4-carboxy-4-[[(4S)-4-carboxy-4-(17-carboxyheptadecanoylamino)butanoyl]amino]butanoyl]amino]butanoyl]amino]butanoyl]-[Imp7,Aib8,His9,Lys18,Glu22,Arg26,Leu33,Thr35]-GLP-1-(7-35)-peptide amide] (Desaminohistidyl-[Aib]HGTFTSDVSKYLEEQAAREFIAWLLK([γGlu-γGlu-γGlu-γGlu-C18 diacid])T-NH2), for which the pEC50 was 11.15.

As for `CC[C@H](C)[C@H](NC(=O)[C@H](Cc1ccccc1)NC(=O)[C@H](CCC(=O)O)NC(=O)[C@H](CCCNC(=N)N)NC(=O)[C@H](C)NC(=O)[C@H](C)NC(=O)[C@H](CCC(N)=O)NC(=O)[C@H](CCC(=O)O)NC(=O)[C@H](CCC(=O)O)NC(=O)[C@H](CC(C)C)NC(=O)[C@H](Cc1ccc(O)cc1)NC(=O)[C@H](CCCNC(=N)N)NC(=O)[C@H](CO)NC(=O)[C@@H](NC(=O)[C@H](CC(=O)O)NC(=O)[C@H](CO)NC(=O)[C@@H](NC(=O)[C@H](Cc1ccccc1)NC(=O)[C@@H](NC(=O)CNC(=O)[C@H](Cc1c[nH]cn1)NC(=O)C(C)(C)NC(=O)CCc1c[nH]cn1)[C@@H](C)O)[C@@H](C)O)C(C)C)C(=O)N[C@@H](C)C(=O)N[C@@H](Cc1c[nH]c2ccccc12)C(=O)N[C@@H](CC(C)C)C(=O)N[C@@H](CC(C)C)C(=O)N[C@@H](CCCCNC(=O)CNC(=O)[C@H](CO)NC(=O)[C@H](CCC(=O)O)NC(=O)CNC(=O)[C@H](CO)NC(=O)CC[C@H](NC(=O)CC[C@H](NC(=O)CCCCCCCCCCCCCCCCC(=O)O)C(=O)O)C(=O)O)C(=O)N[C@H](C(N)=O)[C@@H](C)O` [Example 7, N^ε34-[2-[[(2S)-2-[[(2S)-4-carboxy-2-[[2-[[(2S)-2-[[(4S)-4-carboxy-4-[[(4S)-4-carboxy-4-(17-carboxyheptadecanoylamino)butanoyl]amino]butanoyl]amino]-3-hydroxypropanoyl]amino]acetyl]amino]butanoyl]amino]-3-hydroxypropanoyl]amino]acetyl]-[Imp7,Aib8,His9,Arg18,Glu22,Arg26,Leu33,Thr35]-GLP-1-(7-35)-peptide amide] (I: Desaminohistidyl-[Aib]HGTFTSDVSRYLEEQAAREFIAWLLKT-NH2 / II: {C18 diacid-γGlu-γGlu}-SGESG; amide I:27-II:C), the pEC50 was 11.22.

The record behind these values is US9988430B2, “Stable GLP-1 based GLP-1/glucagon receptor co-agonists” (Novo Nordisk A/S, priority 2014, dated 2018).
